Source: patent US8138191B2, “Inhibitor compounds and cancer treatment methods” (Critical Outcome Technologies Inc., priority 2007, dated 2012)

Key:
CYP2C8 = target: T1, CYP2C8 (Homo sapiens, UniProt P10632); test: CYP2C8 Inhibition (HLM, paclitaxel substrate)
T1 sequence (P10632 1-490): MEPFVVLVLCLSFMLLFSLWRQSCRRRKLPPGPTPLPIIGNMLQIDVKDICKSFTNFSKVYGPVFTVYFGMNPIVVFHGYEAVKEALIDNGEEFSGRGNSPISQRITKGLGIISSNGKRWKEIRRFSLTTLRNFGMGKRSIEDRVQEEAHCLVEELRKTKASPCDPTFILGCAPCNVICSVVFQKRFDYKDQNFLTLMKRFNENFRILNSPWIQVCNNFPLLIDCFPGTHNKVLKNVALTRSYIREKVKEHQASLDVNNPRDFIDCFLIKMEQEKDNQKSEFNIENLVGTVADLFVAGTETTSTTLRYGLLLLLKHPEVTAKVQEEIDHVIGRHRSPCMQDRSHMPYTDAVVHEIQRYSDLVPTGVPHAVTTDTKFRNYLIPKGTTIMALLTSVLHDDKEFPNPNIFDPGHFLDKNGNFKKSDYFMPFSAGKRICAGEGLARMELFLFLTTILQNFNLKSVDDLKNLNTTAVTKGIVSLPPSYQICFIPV

CYP2C19 = CYP2C19 (Homo sapiens, UniProt P33261); test: CYP2C19 Inhibition (HLM, omeprazole substrate)
CYP2C9 = CYP2C9 (Homo sapiens, UniProt P11712); test: CYP2C9 Inhibition (HLM, diclofenac substrate)
Chain of CYP2C9 (P11712 whole entry): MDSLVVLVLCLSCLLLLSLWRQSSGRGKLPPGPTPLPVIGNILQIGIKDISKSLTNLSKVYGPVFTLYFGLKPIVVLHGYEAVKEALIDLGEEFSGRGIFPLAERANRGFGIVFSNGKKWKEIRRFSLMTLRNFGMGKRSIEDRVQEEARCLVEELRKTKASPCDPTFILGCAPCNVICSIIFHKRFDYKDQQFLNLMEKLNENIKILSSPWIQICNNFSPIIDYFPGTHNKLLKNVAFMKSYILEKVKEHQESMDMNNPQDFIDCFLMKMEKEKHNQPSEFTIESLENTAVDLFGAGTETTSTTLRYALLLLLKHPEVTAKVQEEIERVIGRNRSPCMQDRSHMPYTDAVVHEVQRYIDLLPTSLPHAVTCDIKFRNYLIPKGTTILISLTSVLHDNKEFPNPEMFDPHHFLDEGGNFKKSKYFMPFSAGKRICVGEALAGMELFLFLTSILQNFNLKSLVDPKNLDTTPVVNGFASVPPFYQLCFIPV

Chain of CYP2C19 (P33261 whole entry): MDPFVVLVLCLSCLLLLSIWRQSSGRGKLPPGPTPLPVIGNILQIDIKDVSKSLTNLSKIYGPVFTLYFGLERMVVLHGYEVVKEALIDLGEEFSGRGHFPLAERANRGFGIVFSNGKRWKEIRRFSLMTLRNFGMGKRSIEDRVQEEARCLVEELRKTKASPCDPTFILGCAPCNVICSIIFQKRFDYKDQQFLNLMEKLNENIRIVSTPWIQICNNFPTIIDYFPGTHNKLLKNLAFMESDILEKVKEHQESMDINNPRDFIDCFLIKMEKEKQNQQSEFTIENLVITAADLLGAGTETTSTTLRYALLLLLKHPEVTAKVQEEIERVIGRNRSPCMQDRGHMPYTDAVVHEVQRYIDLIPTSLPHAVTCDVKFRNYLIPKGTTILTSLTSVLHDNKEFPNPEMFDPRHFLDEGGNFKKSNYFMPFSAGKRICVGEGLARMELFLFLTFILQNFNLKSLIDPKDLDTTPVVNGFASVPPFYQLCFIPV

SMILES: COC(=O)C1=C(C)NC(C)=C(C(=O)OCCN(C)Cc2ccccc2)C1c1cccc([N+](=O)[O-])c1 (stereo not drawn) [Nicardipine]
- nH (CYP2C8): 1.2

SMILES: CCN(CC)CC#CCOC(=O)C(O)(c1ccccc1)C1CCCCC1 (stereo not drawn) [Oxybutynin]
- nH (CYP2C19): 1.1

SMILES: Nc1ccc(S(=O)(=O)Nc2ccnn2-c2ccccc2)cc1 [Sulfaphenazole]
- nH (CYP2C9): 1.1
